Assay results reported in EP0251194A1, “Use of carbocyclic and heterocyclic condensed dihydropyridines for the preparation of cardioprotective remedies and heterocyclic and carbocyclic condensed dihydropyridines and methods and intermediates for their preparation” (BOEHRINGER INGELHEIM KG, priority 1986, dated 1988).

Tests used:
[1] = system: myocardiale Radio-Calciumaufnahme; test: Inhibition of isoprenaline-induced myocardial radio-calcium uptake in conscious rats (method of Arndts); type: in vivo, Ratten; conditions: peroral administration, dose that inhibits by 50 % the myocardial radio-calcium uptake caused by 30 mg/kg s.c. isoprenaline
Excerpt: Bekanntlich ist der myocardiale Ca⁺² -Gehalt ein Maß für die hypoxische bzw. die durch toxische Catecholamindosen hervorgerufene Herzschädigung (Higgins et al., Mol. Cell. Cardiol. 10: 427 - 438, 1984; Nakanishi et al., Am. J. Physiol. 242: 437 - 449, 1982; Fleckenstein, A., Vorträge der Erlanger Physiol. Tagung 1970, Ed. Keidel, Springer Verlag Berlin, Heidelberg, New York, 1971). Umgekehrt ist die Inhibition der hypoxischen oder Isoprenalin-bedingten mycardialen Calciumaufnahme ein Maß für die cardioprotektive Effektivität von Calciumantagonisten (Fleckenstein s.o.), von Calmodulininhibitoren (Higgins) und anderen Pharmaka, z.B. Betaadrenolytika (Arndts, Arzneimittelforschung 25: 1279 - 1284, 1975).
Die cardioprotektive Wirkung wurde an wachen Ratten nach subcutaner oder peroraler Wirkstoffgabe anhand der von Arndts (s.o.) beschriebenen Methode festgestellt, und die Wirkungsstärke der Testsubtanzen als H₅₀-Wert angegeben; dieser Wert entspricht der Dosis, die die durch eine Gabe von 30 (mg/kg; s.c.) Isoprenalin bedingte myocardiale Radio-Calciumaufnahme zu 50 % hemmt.

Isoliertes Rattenherz = test: Isolated Langendorff heart, oxygen deficiency by reduced perfusion flow, time to onset of regular contractions; set-up: species or system Ratten; conditions: isolated rat heart; infusion of test substance during the O2 deficiency state (60 min, flow reduced 100-fold)
Experimental: Die Untersuchungen am isolierten Langendorff-Herzen wurden nach O. Langendorff, Pflügers Arch. 61, 291 (1895) mit kleinen Abwandlungen ausgeführt:
Isoliertes Rattenherz, retrograde Perfusion über die Aorta. Elektrische Stimulation (300 Impulse/min, Impulsdauer 1msec). Messung des linksventrikulär entwickelten Druckes mit flüssigkeitsgefülltem Latex-Ballon. Nach 20 min Aequilibrierung Auslösen eines Sauerstoff-Mangelzustandes mit 100-fach vermindertem Fluß durch Drosselung des Perfusionsflusses für 60 min, Rückkehr zu normalem Fluß bewirkt starken Anstieg der Grundspannung, unter Kontrollbedingungen setzt die Herztätigkeit nach 6 - 7 min unregelmäßig wieder ein, nach 15 - 18 min rascher Übergang zu regelmäßigen Kontraktionen. Cardioprotektiv wirksame Verbindungen verkürzen die Zeit bis zum Einsetzen regelmäßiger Kontraktionen. Infusion der Testsubstanz (gelöst in unbegastem Perfusionsmedium) während des O₂-Mangelzustandes herznah in das Perfusionssystem.
Die getesteten Verbindungen ergaben bei Anwendung in der unten angegebenen Konzentration eine signifikante Reduktion der Zeit bis zum Einsetzen regelmäßiger Kontraktionen.

Row | Structure (SMILES) | H50-Wert [1] | Konzentration (signifikante Reduktion der Zeit bis zum Einsetzen regelmäßiger Kontraktionen) (Isoliertes Rattenherz)
1 | COc1cc2c(cc1OC)C(=C(C(=O)NCCN1CCOCC1)c1ccccc1)NCC2 [Verbindung A] | 0.73 | 
2 | CCCCNC(=O)C(C1=NCCc2cc(OC)c(OC)cc21)c1ccccc1 (stereo not drawn) [Verbindung B] | 0.50 | 13,3 ug/ml
